In data set [1] the test system is high-grade astrocytoma in human spinal cord. Description: Subcutaneous patient-derived xenograft (PDX) mouse model of high-grade astrocytoma in human spinal cord. The class given is in vivo, NPG mice. Conditions: for tumor sizes at the end of the experiment: no unit at the values (tumor volume formula in mm^3), in mm³; for tumor volume inhibition rate: end of experiment. On the procedure:
• 1) Grouping of animals: the animals were subcutaneously inoculated with tumor tissue pieces, and after tumors were formed in the animals, the animals were grouped based on a principle of a similar mean tumor volume; • 2) Mode of administration: intraperitoneal injection of BS and TMZ (i.p., q.d.×17 days); • 3) Detection indexes: mouse body weight and subcutaneous tumor volume.
BS injections, with a drug content being 30 mg of BS and 90 mg of BS; and 1 mg of TMZ was weighed and dissolved in 1 ml of 0.5% CMC-Na and the obtained solution was uniformly dispersed by an ultrasound-assisted manner to obtain a TMZ drug solution, which was prepared immediately before use each time.
• Animal species: NPG mice, Animal grade: SPF grade, and Sex and number: female, 32 • Animal weight range: 20-25 g, Animal age range: 5-6 weeks old, and Animal source: Beijing Vitalstar Biotechnology Co., Ltd.
The animals were randomly divided into four groups according to Table 5, with 8 animals in each group of a control group, a BSL group, a BSH group and a TMZ group.
Tumor masses (2-3 mm^3) of high-grade astrocytoma in a human spinal cord were prepared and inoculated in right axillas of NPG mice, and after inoculation, a mouse status was routinely observed and the tumor size was measured. Screening was performed according to the tumor volume, animals with a tumor volume of 450 mm^3 were selected for the experiment, and those with an excessive tumor volume and no tumor formation were not selected. A total of 32 suitable tumor-bearing animals were screened for the experiment, and were divided into 4 experimental groups, with 8 mice in each group. The day of first administration was recorded as D1, a second day of administration was recorded as D2, and so on. All animals were administered through single daily intraperitoneal injection for 24 consecutive days.
During the experiment, a long diameter and a short diameter of the tumors in all the animals were measured daily. And a tumor volume (mm^3) was calculated and a formula was as follows: Tumor volume=0.5236×long diameter×short diameter×short diameter.
(In general: In xenograft studies the graft and the host belong to different species.)

In data set [2] the test system is U87 brain glioma subcutaneous model. Description: Administration by injection (intraperitoneal) experiment of U87 brain glioma subcutaneous model in Balb/c nude mice. The class given is in vivo. The text has this:
After 2 days of animal acclimation, qualified animals were retained and randomized into 5 groups, with 6 animals in each group of a control group, a TMZ group, and a BS group. There were 5 animals in each group of the BS+TMZ treatment group and the BS+TMZ prevention group. Mice in the BS group were inoculated subcutaneously in right axillas with U87 cells at 2×10^6/mouse. Administration was started to be performed 14 days after inoculation, which was day 0 of treatment. Administration was performed for a total of 18 days.
A drug treatment regimen was as follows: Blank control group (0.9% NaCl, i.p., q.d.); TMZ group (10 mg/kg, i.p., qd.); BS group (30 mg/kg, i.p., q.d.); BS+TMZ treatment group (10 mg/kg of TMZ, i.p., qd., and 90 mg/kg of BS, i.g., q.d.); BS+TMZ prevention group (10 mg/kg of TMZ, i.p., qd., and 90 mg/kg of BS, i.g., q.d.). […] were injected into tail veins.
(§1) The general condition of the animals and the time of tumor occurrence were recorded daily during the experiment, a long diameter and a short diameter of tumors in the mice were recorded daily, and a tumor volume was calculated according to a formula: long diameter×(short diameter)^2×0.5236, and a body weight of the animals were measured every 3 days. After 18 days of administration, anesthesia was performed with chloral hydrate, and eyeballs were removed for blood collection. The mice were sacrificed, tumors, hearts, livers, spleens, lungs, kidneys, thymuses, whole brains, and intestines were rapidly isolated, blood stains were washed away with ice saline, the tumors, hearts, livers, spleens, lungs, kidneys, thymuses, whole brains, and intestines were wiped to be dry with filter paper, whether there were lesions in internal organs of the animals were observed, and the tumors, hearts, livers, spleens, lungs, kidneys, thymuses, whole brains, and intestines were weighed. A portion of tumor tissue was taken and stored in liquid nitrogen for RNA and protein extraction. Another portion of tumor tissue was placed in a tissue fixative solution for fixation. Distribution of the Se content in brain tissue was detected by Inductively coupled plasma-Mass Spectrometry (ICP-MS).
Female six-week-old Balb/c Nude mice were selected to establish an animal model and inoculated subcutaneously with U87 human-derived glioma cells at 2×10^6/mouse. Administration was started to be performed on day 14 after inoculation, and was continued to be performed for 18 days.
To compare the difference in efficacy between oral gavage administration and intraperitoneal injection administration, the control group, the TMZ group (10 mg/Kg) and the BS group (30 mg/Kg) were administered intraperitoneally once a day in this round of experiment. The mice in the control group were given 0.9% NaCl.
To compare the therapeutic efficacy and preventive efficacy of the combined application of BS and TMZ, combined administration groups were set in this round of experiment: a BS+TMZ treatment group (90 mg/Kg of BS&10 mg/Kg of TMZ) and a BS+TMZ prevention group (90 mg/Kg of B S& 10 mg/Kg of TMZ). The B S+TMZ treatment group was abbreviated as a BS+TMZ (A) group, and tumors with a volume of more than 20 mm^3 were normally formed in the mice on day 14 after U87 inoculation, and the administration was started to be performed to observe the efficacy of the combined use on inhibiting tumor proliferation. The BS+TMZ prevention group is abbreviated as a BS+TMZ (B) group, and tumors with a volume of less than 20 mm^3 were formed in the mice on day 14 after U87 inoculation, and the administration was started to observe the efficacy of the combined use on the prevention of tumor formation. The mice in the combined groups were administered by single daily oral gavage. The start time of administration was Day 1, a second day of administration was Day 2, and so on.

The nature of data set [3]: Body weight and general condition of U87 tumor-bearing nude mice during administration. Type of data set: in vivo, Balb/c nude mice. On the procedure:
as §1

Data set [4] in a line: Solubility of butaselen in water. Type of data set: physicochemical.
A short description of data set [5]: Body weight and clinical observation of NPG mice during administration. Type of data set: in vivo. Conditions: BS 30 and 90 mg/kg, intraperitoneal injection. On the procedure: All animals were observed once a day during the experiment period. The observation content included death or dying, feces, a feeding status, a mental status, and behavioral activities, etc. If any abnormal situation was found, it was recorded in time. All animals were weighed once before grouping, three times per week after administration, and once before euthanasia.
No clinical abnormal symptoms or animal deaths due to drug toxicity were observed during this experiment.

Data set [6] can be described thus: Distribution of BS in brain tissue of ICR mice after intraperitoneal injection, ICP-MS. The class given is in vivo. Particulars: female, mouse, ip, intraperitoneal injection 90 mg/kg. The procedure: The distribution of BS in mouse brain tissue was examined as follows: Brain glioma is located in the skull and has a special lesion location. Thus, it is critical whether a drug can cross the blood-brain barrier and act at the lesion site. In order to detect whether BS can reach brain tissue through the blood-brain barrier, female six-week-old ICR mice were selected for the study. The mice were intraperitoneally injected with 90 mg/kg of BS, and brain tissues before administration and brain tissues at 0.5 h, 1 h, 2 h and 3 h after administration were taken for ICP-MS detection. The BS content per gram of brain tissue was calculated by detecting the selenium content per gram of brain tissue.

Data set [7] can be described thus: Distribution of BS in brain tissue of U87 nude mice by ICP-MS (selenium content). The class given is in vivo. Conditions: Balb/c nude, mouse, BS 30 mg/kg, injection dosage form (intraperitoneal), after the experiment, calculated from selenium content. On the procedure:
as §1, with “A portion of tumor tissue was taken and stored in liquid nitrogen for RNA and protein extraction. Another portion of tumor tissue was placed in a tissue fixative solution for fixation.” left out
Brain tissues of the mice after the experiment of BS+TMZ gavage (90+10 mg/kg) and BS intraperitoneal injection (30 mg/kg) were taken and detected by ICP-MS. By detecting the selenium content per gram of brain tissue, the BS content per gram of brain tissue was calculated. […]

The subject of data set [8] is U87 brain glioma subcutaneous model. Description: Gavage administration experiment of U87 brain glioma subcutaneous model in Balb/c nude mice. Type of data set: in vivo. Particulars: BS 90 mg/kg, oral administration (i.g., q.d.), 11 days. On the procedure:
After 2 days of animal acclimation, qualified animals were retained and randomized into 6 groups, with 7 animals in each group. Mice were inoculated subcutaneously in right axillas with U87 cells at 2×10^6/mouse. Administration was started to be performed 12 days after inoculation, which was day 0 of treatment. Administration was performed for a total of 11 days.
A drug treatment regimen was as follows: Blank control group (0.5% CMC-Na, i.g., q.d.); TMZ group (30 mg/kg, i.g., q.d.); BSL group (10 mg/kg, i.g., q.d.); BSM group (90 mg/kg, i.g., q.d.); BSH group (180 mg/kg, i.g., q.d.); and BSM+TMZ group (30 mg/kg of TMZ, 90 mg/kg of BS, i.g., q.d.).
The general condition of the animals and the time of tumor occurrence were recorded daily during the experiment, a long diameter and a short diameter of tumors in the mice were recorded daily, and a tumor volume was calculated according to a formula: long diameter×(short diameter)^2×0.5236, and a body weight of the animals were measured every 3 days. After 18 days of administration, anesthesia was performed with chloral hydrate, and eyeballs were removed for blood collection. […] Distribution of the Se content in brain tissue was detected by Inductively coupled plasma-Mass Spectrometry (ICP-MS).

Setting [9] is: TMZ 10 mg/kg, intraperitoneal, experiment in this group ended early on day 12.
The mark [10] stands for this setting: BS 30 mg/kg, intraperitoneal injection, q.d., 18 days, end of experiment.
Setting [11] is: BS 30 mg/kg, intraperitoneal, end of experiment.

≈ marks a conversion by molar mass, not a printed value.

With `Cn1nnc2c(C(N)=O)ncn2c1=O` [TMZ, temozolomide, reference compound], the “tumor sizes at the end of the experiment” value in data set [1] (TMZ 5 mg/kg i.p. q.d.) is 2693.29±1682.23. Further, the “tumor volume inhibition rate” value in data set [1] (TMZ group (5 mg/kg i.p.)) is listed as 27.82%. Further, in data set [2] (setting [9]), the “Tumor volume (mm^3)” value amounted to 343.23±245.20 mm^3 and the “Tumor weight” value is 0.19 ± 0.08 g. Besides, the “body weight of the mice” value in data set [3] (TMZ group (30 mg/Kg as printed), U87 tumor-bearing nude mice, group ended on day 12) is “significantly decreased”.
Consider `O=c1c2ccccc2[se]n1CCCCn1[se]c2ccccc2c1=O` [BS, butaselen], for which the “tumor sizes at the end of the experiment” value in data set [1] (BS 30 mg/kg i.p. q.d.) is recorded as 4593.83±2725.69; in data set [1] (BS 90 mg/kg i.p. q.d.), 2999.76±2191.03. Also, the “tumor volume inhibition rate” value in data set [1] (high-dose BS group (90 mg/kg i.p.)) is 35.19%; in data set [1] (low-dose BS group (30 mg/kg i.p.)), -10.54%. In addition, the solubility in data set [4] was about 0.15 µg/mL (≈ 0.333 µM). The “Tumor volume (mm^3)” value in data set [2] (setting [10]) is recorded as 105.18±66.62 mm^3; in data set [8], 122.05±33.15 mm^3. In addition, the results for the “Volume inhibition rate (%)” value in data set [2] (setting [10]) and in data set [8] were 81.12% and 78.87%, respectively. In data set [2] (setting [11]), the “Tumor weight” value was found to be 0.13 ± 0.08 g. For the same compound, in data set [2] (setting [11]), the “Weight inhibition rate (%)” value is on record as 66.67%. Moreover, the “toxic and side effects on the NPG mice” value in data set [5] is “no obvious toxic and side effects”. Also, the weight loss entry in data set [5] (NPG mice) is “no significant weight loss”. Besides, the “toxic and side effects on tumor-bearing nude mice” value in data set [3] (BS group, BS+TMZ (A) and (B) groups, normal diet, activities, mental status) is “no obvious toxic and side effects”. In data set [6] (0.5 h after administration), this compound came in with a concentration at 0.5 h of 439 ng/g. Moreover, the concentration at 1 h in data set [6] (1 h after administration) was determined as 372 ng/g. For the same compound, the concentration at 2 h in data set [6] (2 h after administration (peak)) worked out at 528 ng/g. The compound also registered a concentration at 3 h in data set [6] (3 h after administration) of 419 ng/g. Also, in data set [7], the concentration at 18 days was 121 ng/g.

A word on the solubility: it is how much of the substance goes into solution per volume. A low value points to little dissolved substance.

These data come from patent publication EP4620468A1, “BUTASELEN-CYCLODEXTRIN INCLUSION COMPLEX, PHARMACEUTICAL COMPOSITION, METHOD FOR PREPARING SAME, AND USE THEREOF” (Shanghai Yuanxi Medicine Corp., priority 2022, dated 2024).
